Results reported in patent US20170334877A1, “REVAPRAZAN HYDROCHLORIDE POLYMORPHS AND PREPARATION METHOD THEREFOR” (JIANGSU TASLY DIYI PHARMACEUTICAL CO., LTD., priority 2014, published 2017).
Counter-ions that a name gives are not always drawn. Values belong to the molecule of their own block, whether it stands above or below them.

Experiments:
[1] = Light illumination test (intense light, 4500±500 Lx); assay type: physicochemical; settings: for Appearance color / Loss on drying (%) / Purity (%) / Relevant substances: light 4500±500 Lx; for Loss on drying (%) / Purity (%) / Relevant substances: hydrochloride
Text: Revaprazan hydrochloride crystalline form I is irradiated under such a condition that the light intensity is 4500±500 Lx, and is sampled on the 5th day and 10th day for detection, and the results are shown in Table 1. Revaprazan hydrochloride crystalline form II is irradiated under the condition that the light intensity is 4500±500Lx, and is sampled on the 5th day and 10th day for detection. Revaprazan hydrochloride polymorph III is irradiated under such a condition that the light intensity is 4500±500Lx, and is sampled on the 5th day and 10th day for detection. Revaprazan hydrochloride […] is irradiated under such a condition that the light intensity is 4500±500Lx, and is sampled on the 5th day and the 10th day for detection. Revaprazan hydrochloride crystalline form V is irradiated under the light intensity condition of 4500±500Lx; and is sampled on the 5th day and 10th day for detection.

[2] = High temperature test (60° C. incubator); assay type: physicochemical; settings: for Appearance color / Loss on drying (%) / Purity (%) / Relevant substances: 60° C., hydrochloride
Method: Revaprazan hydrochloride crystalline form I is placed in a 60° C. incubator, and is sampled on the 5th day and 10th day for detection, and the results are shown in Table 2. Revaprazan hydrochloride crystalline form II is placed in a 60° C. incubator, and is sampled on the 5th day and 10th day for detection, and the results are shown in Table 6. Revaprazan hydrochloride polymorph III is placed in an incubator of 60° C., and is sampled on the 5th day and the 10th day for detection. Revaprazan hydrochloride crystalline form IV is placed in an incubator of 60° C., and is sampled on the 5th day and the 10th day for detection. Revaprazan hydrochloride crystal form 4 is placed in an incubator of 60° C.; and is sampled on the 5th day and the 10th day for detection, and the results are shown in Table 23.

[3] = High humidity test (25° C., relative humidity 75±5%); assay type: physicochemical; settings: for Appearance color / Purity (%) / Weight gain upon moisture absorption (%): 25° C., RH 75±5%
Method: Revaprazan hydrochloride crystalline form I is placed in an incubator of 25° C. (relative humidity of 75±5%), and is sampled on the 5th day and 10th day for detection. Revaprazan hydrochloride crystalline form II is placed in an incubator of 25° C. (relative humidity of 75±5%), and is sampled on the 5th day and 10th day for detection. Revaprazan hydrochloride polymorph III is placed in an incubator of 25° C. (relative humidity of 75±5%), and is sampled on the 5th day and the 10th day for detection. Revaprazan hydrochloride crystalline form IV is placed in an incubator of 25° C. Revaprazan hydrochloride crystal form 4 is placed in an incubator of 25° C. (the relative humidity is 75±5%), and is sampled on the 5th day and the 10th day for detection.

[4] = Accelerated test (40±2° C., relative humidity 75±5%, 6 months, sealed polyethylene film bag); assay type: physicochemical; settings: for Appearance color / Purity (%) / Relevant substances: 40±2° C., RH 75±5%; for Purity (%) / Relevant substances: hydrochloride
Method: Revaprazan hydrochloride crystalline form I is sealed in a polyethylene film bag, is placed for 6 months under the conditions that the temperature is 40±2° C. and the relative humidity is 75±5%, and is respectively sampled at the end of the 1st Month, the 2nd Month, the 3rd Month and the 6^thMonth for detection; and the results are shown in Table 4. Revaprazan hydrochloride crystalline form II is sealed in a polyethylene film bag and is placed for 6 months under the conditions that the temperature is 40±2° C. and the relative humidity is 75±5%, and is respectively sampled at the end of the 1st Month, the 2nd Month, the 3rd Month and the 6th Month for detection; and the results are shown in Table 8. Revaprazan hydrochloride crystalline form III is sealed in a polyethylene film bag, is placed for 6 months under the conditions that the temperature is 40±2° C. and the relative humidity is 75±5%, and is sampled at the end of the 1st Month, the 2nd Month, the 3rd Month and the 6th Month for detection. Revaprazan hydrochloride crystalline form IV is sealed in a polyethylene film bag, is placed for 6 months under the conditions that the temperature is 40±2° C. and the relative humidity is 75±5%, and is sampled at the end of the 1st Month, the 2nd Month, the 3rd Month and the 6th Month for detection. Revaprazan hydrochloride crystalline form V is sealed in a polyethylene film bag and is placed for 6 months under the condition that the temperature is 40±2° C. and the relative humidity is 75±5%, and is sampled at the end of the 1st month, the 2nd month, the 3rd month and the 6th month for detection, and the results are shown in Table 20.

[5] = general statement in background art; cited from earlier work

Stability (conclusion in words) ([1]; intense light illumination, no obvious changes in appearance color, loss on drying, purity, relevant substances): stable
Appearance color ([1]; 5th day): White powder
Loss on drying (%) ([1]; 5th day): 0.27%
Purity (%) ([1]; 5th day): 99.95%
Relevant substances ([1]; 5th day): Undetected
Appearance color ([1]; 10th day): White powder
Loss on drying (%) ([1]; 10th day): 0.30%
Purity (%) ([1]; 10th day): 99.95%
Relevant substances ([1]; 10th day): Undetected
Appearance color ([1]; Day 0): White powder
Loss on drying (%) ([1]; Day 0): 0.24%
Purity (%) ([1]; Day 0): 99.94%
Relevant substances ([1]; Day 0): Undetected
Appearance color ([2]; 5th day): White powder
Loss on drying (%) ([2]; 5th day): 0.30%
Purity (%) ([2]; 5th day): 99.95%
Relevant substances ([2]; 5th day): Undetected
Appearance color ([2]; 10th day): White powder
Loss on drying (%) ([2]; 10th day): 0.32%
Purity (%) ([2]; 10th day): 99.92%
Relevant substances ([2]; 10th day): Undetected
Appearance color ([2]; Day 0): White powder
Loss on drying (%) ([2]; Day 0): 0.29%
Purity (%) ([2]; Day 0): 99.94%
Relevant substances ([2]; Day 0): Undetected
Stability (conclusion in words) ([2]; high temperature, no obvious changes in appearance color, loss on drying, purity, relevant substances): stable
Appearance color ([3]; 5th day): White powder
Purity (%) ([3]; 5th day, hydrochloride): 99.94%
Weight gain upon moisture absorption (%) ([3]; 5th day, hydrochloride): 0.42%
Appearance color ([3]; 10th day): White powder
Purity (%) ([3]; 10th day, hydrochloride): 99.96%
Weight gain upon moisture absorption (%) ([3]; 10th day, hydrochloride): 0.66%
Appearance color ([3]; Day 0): White powder
Weight gain upon moisture absorption (%) ([3]; Day 0): 0%
Purity (%) ([3]; Day 0, hydrochloride): 99.94%
Weight gain upon moisture absorption (in words) ([3]; high humidity condition): slight weight gain
Stability (conclusion in words) ([3]; high humidity, no obvious changes in appearance color, purity, relevant substances): stable
Appearance color ([4]; 1st month): White powder
Purity (%) ([4]; 1st month): 99.98%
Relevant substances ([4]; 1st month): Undetected
Appearance color ([4]; 2nd month): White powder
Purity (%) ([4]; 2nd month): 99.95%
Relevant substances ([4]; 2nd month): Undetected
Appearance color ([4]; 3rd month): White powder
Purity (%) ([4]; 3rd month): 99.97%
Relevant substances ([4]; 3rd month): Undetected
Appearance color ([4]; 6th month): White powder
Purity (%) ([4]; 6th month): 99.94%
Relevant substances ([4]; 6th month): Undetected
Appearance color ([4]; Month 0): White powder
Purity (%) ([4]; Month 0): 99.94%
Relevant substances ([4]; Month 0): Undetected
Stability (conclusion in words) ([4]; accelerated test, no obvious changes in appearance color, purity, relevant substances): stable
SMILES: Cc1nc(Nc2ccc(F)cc2)nc(N2CCc3ccccc3C2C)c1C (single isomer, unassigned) [revaprazan hydrochloride crystalline form V]

SMILES: Cc1nc(Nc2ccc(F)cc2)nc(N2CCc3ccccc3C2C)c1C (stereo not drawn) [Revaprazan hydrochloride]
Time to maximum plasma concentration [5]: about 1 h
